Results taken from patent US4990538A, “Use of toremifene and its metabolites for the reversal of multidrug resistance of cancer cells against cytotoxic drugs” (priority 1989, dated 1991).
Entries after “also recorded” stand apart in the source; their conditions may differ. Structures can show the parent of a compound that is named as a salt. Numbered stars: 1 amine (or outer) side, 2 acyl side, 3 side chain; on linkers, the order of the positions; unused ones are H or OH. Bridge positions count the residues as written; N and C are the ends. Square brackets hold non-standard residues; d marks the D form. Peptide text beside a SMILES is read from it. I, II: the chains in the order shown. Actinocin(9to1) = Cc1c2oc3c(C)ccc(C(=O)[*:1])c3nc-2c(C(=O)[*:2])c(N)c1=O; NMeV = CN[C@H](C(=O)O)C(C)C; Sar = CNCC(=O)O

Experiments:
[1] = test system: MDR cell; details: Ramu et al; cited from earlier work
[2] = test system: CHO-Adr cells; assay: MTT cell viability assay in doxorubicin resistant CHO-Adr cells; details: CHO-Adr cell line
Experimental: Initial cell growth studies were carried out to investigate the effect of combination toremifene +doxorubicin in doxorubicin sensitive and resistant cells. Cell cultures were carried out using wild type CHO-K1 cells as well as CHO-Adr cells, the latter being selected by a series of step-wise selections of doxorubicin resistant clones in presence of 0.4 ug/ml of doxorubicin. […] The resistant cells were stable in cell culture in the absence of doxorubicin. Both cell lines were cultivated in Hams F10 medium supplemented with 5% newborn calf serum, 5% foetal calf serum, antibiotics and 3mM glutamine. The cells were maintained as monolayer cultures 37° C. under 5% CO2. Drug sensitivity in CHO-K1and CHO-Adr cells was assessed by a semi-automated colorimetric MTT assay. The assay is dependent on the cellular reduction of MTT (3-U4,5-dimethylthiazol-2-ylA-2,5-diphenyl tertazolium bromide, thiazolyl blue) by the mitochondrial dehydrogenase of viable cells to a blue formazan product which was measured spectrophotometrically. The cells were seeded on 96-well plates and allowed to settle for 12 hours at 37° C. in 5% CO2. Appropriate drug concentrations diluted in growth medium were added for 24 hours. Toremifene was dissolved in 95% ethanol stock solution, doxorubicin stock solution was prepared in water. […] The cells were incubated with the drugs for 24 hours, after which the cells were washed twice with phosphate buffered saline before being placed in 200 μl fresh medium for a further 48 hours. At the end of this incubation 0.1 mg MTT was added to each well and incubated for 4 hours. The medium was carefully aspirated and the crystals were solubilised in 100 μ l DMSO (dimethyl sulfoxide). Absorbances at 540 nm were read immediately on an ELISA Multiskan reader. The results were expressed as a percentage of absorbance of drug treated cells compared to controls.
The effect of AAG in the concentration of 0.1 to 2 mg/ml was assessed on the potentiation produced by toremifene.

[3] = test system: rat PKC; details: O'Brian et al; cited from earlier work
[4] = test system: MCF-7/DOX cells; assay: Inhibition of cell growth / reversal of MDR in MCF-7/DOX cells (methylene blue); assay type: cell-based, human; details: for Effectiveness in reversing MDR: MCF-7/DOX cells, Table 5 and FIG. 7; for Inhibition of cell growth, Actual: 2880 min
Experimental: The cells were cultivated in 100 ul volumes in 96-well microtiter plates. The principle of the method was to cultivate cells in the presence of the drugs/ drug combinations for 48 hours. After this time the living cells were stained with methylene blue and quantitated spectrophotometrically using microtiter plate reader (Titertek Model MCC/340) interfaced to an Apple IIe computer. Inhibition of the cell growth is expressed as a percentage of absorbance of vehicle treated control cultures.

[5] = at dose levels or concentrations required for MDR reversal; cited from earlier work
[6] = test system: MCF-7 oestrogen receptor positive breast cancer cell line; details: Foster et al, cited from earlier work; for Modulation of multidrug resistance: 10 μM tamoxifen or perhexilene maleate
[7] = test system: cultured cells; details: Sutherland et al; cited from earlier work
[8] = test system: PKC; details: Horgan et al; cited from earlier work
[9] = test system: HOV-007; assay: Number of living cells (bioluminescence), ovarian cancer line HOV-007; details: toremifene 0 μM, 3 days
Experimental: (§1) Two human ovarian cell lines were established in vitro from fresh serous ovarian cancer tissues. The lines are coded HOV-007 and HOV-018. The cells were cultivated in Eagle's MEM containing 1% unstripped foetal calf serum. The assays were carried out at 37° C. in 5% CO2 on 96 well plates.
presented. Number of cells was quantitated after 3 days'

[10] = test system: Human melanoma UV-me-1; assay: Toremifene and doxorubicin in human melanoma UV-me-1; details: for Toremifene and doxorubicin in UV-me-1 (living cells): toremifene 0 μM, 2 days, control 100
[11] = test system: HOV-018; assay: Number of living cells (bioluminescence), ovarian cancer line HOV-018; details: toremifene 0 μM, 4320 min
Experimental: as §1

[12] = test system: Lewis Lung (LL) tumor; assay: Schedule dependency of antitumor effect in Lewis Lung tumor
Experimental: (§2) Lewis Lung (LL) or melanoma B-16 tumor cells, 2×10^6 cells/animal, were inoculated intramuscularly to female C-57 mice. Tumors were allowed to grow to the mean diameter of 1.5 cm after which toremifene/doxorubicin treatments were started as indicated in the next tables. Tumor size was measured before treatment and after 10 days in 2 dimensions and the mean was considered as tumor diameter. Weight of the animals was also recorded.

[13] = test system: B-16 melanoma; assay: Schedule dependency of antitumor effect in B-16 melanoma
Experimental: as §2

[14] = drug 0.6 μg/ml +1 μM doxorubicin
[15] = doxorubicin 3 mg/kg s.c. days 1-5
[16] = doxorubicin 3 mg/kg s.c. days 6-10

Compound: COc1ccc2c(c1)CCC(c1ccccc1)=C2c1ccc(OCCN2CCCC2)cc1 [nafoxidine]
- Reversal of MDR by triparonol analogues [1]: reversal of MDR

Compound: COc1cccc2c1C(=O)c1c(O)c3c(c(O)c1C2=O)C[C@@](O)(C(C)=O)C[C@@H]3O[C@H]1C[C@H](N)[C@H](O)[C@H](C)O1 [daunorubicin, reference compound]
- Resistance of the CHO-Adr cell line [2]: cross-resistant

Compound: CCC(=C(c1ccc(O)cc1)c1ccc(OCCN(C)C)cc1)c1ccccc1 [4-hydroxy tamoxifen]
- Inhibition of rat PKC activity in vitro [3]: inhibition of rat PKC activity in vitro

Compound: COc1cc2c(c(OC)c1OC)-c1ccc(OC)c(=O)cc1[C@@H](NC(C)=O)CC2 [colchicine, reference compound]
- Resistance of the CHO-Adr cell line [2]: cross-resistant

Compound: CNCCOc1ccc(C(=C(CCCl)c2ccccc2)c2ccccc2)cc1 [N-demethyltoremifene, 4-chloro-1,2-diphenyl-1-(4-(2-(N-methylamino)ethoxy)phenyl)-1-butene]
- Effectiveness in reversing MDR [4]: almost equally effective
- Inhibition of cell growth, Actual [4, 14]: 28 % control
- Potential (potentiation of doxorubicin activity) [4, 14]: 33 % control
- Inhibition of cell growth, Actual ([4]; drug […] +1 μM doxorubicin): 40 % control
- Potential (potentiation of doxorubicin activity) ([4]; drug […] +1 μM doxorubicin): 43 % control

Compound: CC/C(=C(\c1ccccc1)c1ccc(OCCN(C)C)cc1)c1ccccc1 [Tamoxifen, tamoxifen]
- Reversal of MDR by triparonol analogues [1]: reversal of MDR
- Safety / toxicity in clinical use [5]: higher toxicity
- Modulation of multidrug resistance [6]: modulation of multidrug resistance; also recorded: possess activity for reversing MDR
- C14-doxorubicin accumulation [6]: no increase in C14-doxorubicin accumulation
- Effect of 50 nM estradiol on the effects of tamoxifen [6]: did not attenuate the effects of tamoxifen
- Reversal by oestradiol of growth inhibitory effects of high doses [7]: could not be reversed by oestradiol
- Inhibition of PKC activity in vivo [8]: inhibition of PKC activity in vivo
- Inhibition of rat PKC activity in vitro [3]: inhibition of rat PKC activity in vitro
- Effectiveness in reversing MDR [4]: almost equally effective

Compound: COc1cccc2c1C(=O)c1c(O)c3c(c(O)c1C2=O)C[C@@](O)(C(=O)CO)C[C@@H]3O[C@H]1C[C@H](N)[C@H](O)[C@H](C)O1 [doxorubicin]
- Number of living cells ([9]; doxorubicin 0.1 μg/ml): 87% of control values
- Number of living cells ([9]; doxorubicin 0.3 μg/ml): 64% of control values
- Number of living cells ([9]; doxorubicin 1.0 μg/ml): 41% of control values
- Sensitivity of the cell line ([10]; UV-me-1): relatively sensitive
- Toremifene and doxorubicin in UV-me-1 (living cells) ([10]; doxorubicin 0.1 μg/ml): 74
- Toremifene and doxorubicin in UV-me-1 (living cells) ([10]; doxorubicin 1.0 μg/ml): 9
- Resistance of the CHO-Adr cell line [2]: resistant
- Number of living cells ([11]; doxorubicin 0.1 μg/ml): 96% of control values
- Number of living cells ([11]; doxorubicin 0.3 μg/ml): 89% of control values
- Change of body weight [12, 15]: -2 g
- Change of tumor diameter [12, 15]: +2.0 mm
- Change of body weight [12, 16]: +10 g
- Change of tumor diameter [12, 16]: +3.7 mm
- Change of body weight [13, 15]: -5 g
- Change of tumor size [13, 15]: +1.9 mm
- Change of body weight [13, 16]: -2 g
- Change of tumor size [13, 16]: +3.1 mm

Compound: Cc1c2oc3c(C)ccc(C(=O)N[C@@H]4C(=O)N[C@H](C(C)C)C(=O)N5CCC[C@H]5C(=O)N(C)CC(=O)N(C)[C@@H](C(C)C)C(=O)O[C@@H]4C)c3nc-2c(C(=O)N[C@@H]2C(=O)N[C@H](C(C)C)C(=O)N3CCC[C@H]3C(=O)N(C)CC(=O)N(C)[C@@H](C(C)C)C(=O)O[C@@H]2C)c(N)c1=O [actinomycin D, reference compound] (I: T[dV]P[Sar][NMeV] / II: T[dV]P[Sar][NMeV]; ester I:1-I:C, II:1-II:C; linker I:N-II:N via Actinocin(9to1))
- Resistance of the CHO-Adr cell line [2]: cross-resistant

Compound: C1CCC(C(CC2CCCCN2)C2CCCCC2)CC1 (stereo not shown) [perhexilene maleate, perhexiline maleate]
- Modulation of multidrug resistance [6]: modulation of multidrug resistance

Compound: CCN(CC)CCOc1ccc(C(=C(Cl)c2ccccc2)c2ccccc2)cc1 [clomiphene]
- Reversal of MDR by triparonol analogues [1]: reversal of MDR

Compound: CN(C)CCOc1ccc(C(=C(CCCl)c2ccccc2)c2ccc(O)cc2)cc1 [4-hydroxytoremifene, 4-chloro-1-(4-hydroxyphenyl)-2-phenyl-1-(4-(2-(N,N-dimethylamino)ethoxy)phenyl)-1-butene]
- Effectiveness in reversing MDR [4]: slightly less effective
- Inhibition of cell growth, Actual [4, 14]: 28 % control
- Potential (potentiation of doxorubicin activity) [4, 14]: 8 % control
- Inhibition of cell growth, Actual ([4]; drug […] +1 μM doxorubicin): 45 % control
- Potential (potentiation of doxorubicin activity) ([4]; drug […] +1 μM doxorubicin): 10 % control
